What is called IC50 is the concentration needed to halve the response being measured.

One compound from publication PMC5064002, “Sintokamide A Is a Novel Antagonist of Androgen Receptor That Uniquely Binds Activation Function-1 in Its Amino-terminal Domain” (The Journal of Biological Chemistry, 2016) can be followed below.

Data set [1] in a line: Lability of SINT1 over the course of the studies. The data set is classed as physicochemical. The following applies: activity decreased over the course of the studies. The protocol:
SINT1 is labile, and over the course of completing these studies its activity decreased. […] Therefore, we first evaluated its pharmacokinetics before in vivo studies were carried out to determine dose and route of delivery.

In data set [2] the target is T1, AR (Homo sapiens, UniProt P10275, T878A).
T1 construct: endogenous in cells; host or cells: LNCaP
T1 sequence (P10275 1-920 T878A): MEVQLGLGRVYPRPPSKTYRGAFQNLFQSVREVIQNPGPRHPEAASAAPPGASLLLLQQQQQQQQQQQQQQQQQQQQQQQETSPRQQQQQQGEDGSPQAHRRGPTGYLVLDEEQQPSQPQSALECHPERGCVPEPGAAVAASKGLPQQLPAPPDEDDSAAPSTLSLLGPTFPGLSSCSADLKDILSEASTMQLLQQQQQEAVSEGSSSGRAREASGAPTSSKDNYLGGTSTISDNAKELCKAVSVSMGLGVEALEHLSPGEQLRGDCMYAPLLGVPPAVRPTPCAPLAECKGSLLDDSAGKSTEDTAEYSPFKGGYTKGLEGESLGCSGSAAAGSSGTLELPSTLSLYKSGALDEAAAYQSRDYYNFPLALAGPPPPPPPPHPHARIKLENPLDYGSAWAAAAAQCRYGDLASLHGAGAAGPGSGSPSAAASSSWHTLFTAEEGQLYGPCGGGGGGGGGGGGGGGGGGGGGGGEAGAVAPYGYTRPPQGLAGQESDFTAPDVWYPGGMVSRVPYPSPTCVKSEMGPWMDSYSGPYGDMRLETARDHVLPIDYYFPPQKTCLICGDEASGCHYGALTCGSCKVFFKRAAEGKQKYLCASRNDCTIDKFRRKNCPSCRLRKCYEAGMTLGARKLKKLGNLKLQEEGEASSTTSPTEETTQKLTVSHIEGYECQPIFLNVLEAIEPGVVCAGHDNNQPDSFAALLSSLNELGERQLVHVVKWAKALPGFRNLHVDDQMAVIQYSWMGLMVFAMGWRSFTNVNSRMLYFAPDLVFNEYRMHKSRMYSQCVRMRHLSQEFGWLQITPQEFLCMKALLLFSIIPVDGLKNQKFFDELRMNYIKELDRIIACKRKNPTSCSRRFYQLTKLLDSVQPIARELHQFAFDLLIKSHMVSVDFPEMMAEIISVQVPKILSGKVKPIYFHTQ
The data set can be described thus: AR-responsive luciferase reporters (PSA (6.1 kb), PB, ARR3) in LNCaP cells, SINT1 and EPI-002 alone or combined. The class given is cell-based. The following applies: 1 nM R1881 48 h. The procedure: LNCaP cells were transfected with AR-responsive PSA (6.1 kb)-luciferase, PB-luciferase, and ARR3-luciferase reporters. Forty-eight hours later, cells were pretreated for 1 h with SINT1 (0–24 μM), EPI-002 (0–31 μM), or a combination with a constant ratio of 1:1.3 for EPI-002/SINT1 concentration. Cells were then incubated with 1 nM R1881 for 48 h, and a luciferase assay was performed. IC50 values for SINT1 for the three reporters were calculated using GraphPad Prism (version 6.01; GraphPad Software). The combination index of SINT1 and EPI-002 was calculated using CalcuSyn software. Combination indices >1, 1, and <1 indicate antagonism, additive affect, and synergy, respectively.
On the technique in general: A reporter such as luciferase makes a cellular process visible.

Data set [3] deals with LNCaP95 xenografts. The data set can be described thus: LNCaP95 xenografts in castrated mice. The class given is in vivo, NOD-SCID mice. The procedure: At 48 h, total RNA was isolated using a PureLink RNA Mini kit (Invitrogen). For in vivo expression, tumors were harvested 3 days after last treatment, and RNA was extracted using TRIzol. Prior to cDNA generation, 4 μg of RNA were DNase-treated using DNase I (amplification grade; Sigma-Aldrich). DNase-treated RNA was split into two tubes (+RT and −RT), and cDNA was generated using the High Capacity RNA-cDNA kit (Applied Biosystems). Once complete, both reactions were adjusted to 5 ng/μl and stored at −20 °C. Approximately 5 ng of diluted cDNA and gene-specific primers were mixed with Platinum SYBR Green qPCR SuperMix-UDG with ROX (Invitrogen). The transcripts were measured using an ABI PRISM 7900 Sequence Detection System (Invitrogen). For all quantitative RT-PCR experiments, each sample was tested in triplicate, and gene expression levels were normalized to the reference gene RPL13A. Neuron-specific enolase (ENO2) (Gene ID, 2026; pair 1) and synaptophysin (SYP) (Gene ID, 6855; pair 2) human primers were from Sigma Life Science. All other primers were described previously ([4], [9]) and purchased from Integrated DNA Technologies.
Male NOD-SCID mice bearing subcutaneous LNCaP or LNCaP95 tumors were castrated when the tumor volume reached ∼100 mm^3. Seven days after castration, animals were injected intratumorally with 30 mg/kg of body weight SINT1 or a matching volume of vehicle (DMSO) every 3 days for a total of 15 days. Animal behavior and body weight were observed throughout the study period for signs of toxicity. Tumor volumes were calculated by the formula length × width × height × 0.5236. Tumors were excised 3 days after the last injection and prepared for immunohistochemistry or gene expression.

On to `CCC(=O)NC(CC(C)C(Cl)(Cl)Cl)C(=O)N1C(=O)C=C(OC)C1CC(C)C(Cl)Cl` (stereo not shown) [SINT1, Sintokamide A], for which the stability entry in data set [1] is on record as “labile”. Also, the 50% inhibitory concentration (IC50) in data set [2] (IC50, ARR3-Luc) was 13.2 ± 1.19 µM; in data set [2] (IC50, PB-Luc) it was 11.6 ± 0.78 µM; in data set [2] (IC50, PSA (6.1 kb)-Luc), 10.7 ± 1.55 µM. Also, the “growth of LNCaP95 tumors” value in data set [3] (castrated mice, 30 mg/kg intratumorally every 3 days) was “significantly reduce the growth”. Further, in data set [3] (harvested LNCaP95 xenografts), the “levels of expression of ENO2 and SYP genes (neuroendocrine differentiation)” value is reported as “no significant changes”. Moreover, in data set [3] (tumors harvested 3 days after last treatment), the “levels of FL-AR and AR-V7 transcripts in harvested LNCaP95 xenografts” value is “not significantly altered”.
